Test results: patent US6583177B2, “Leukotriene B4 antagonist compounds and method for treatment” (Ono Pharmaceutical Co., Ltd., priority 1994, dated 2003)

How the values were obtained:
[1] = molecular target: T1, trypsin (derived from bovine pancreas) (Bos taurus, UniProt P00760); test: Inhibitory activity on trypsin; assay type: biochemical; conditions: bovine pancreas trypsin, BAPNA substrate, 30° C., pH 8.0; read-out: inhibitory activity on trypsin IC50
T1 construct: a solution of 80 mU/ml trypsin (derived from bovine pancreas) (50 μl); from tissue; host or cells: bovine pancreas
T1 sequence (P00760 24-246): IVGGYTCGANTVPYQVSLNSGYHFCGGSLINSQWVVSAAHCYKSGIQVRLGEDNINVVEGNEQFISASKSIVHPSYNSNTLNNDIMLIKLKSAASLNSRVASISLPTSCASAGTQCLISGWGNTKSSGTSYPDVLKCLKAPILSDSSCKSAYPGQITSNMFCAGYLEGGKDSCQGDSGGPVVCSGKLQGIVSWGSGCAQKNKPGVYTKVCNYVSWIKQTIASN
Method: (2) Inhibitory Activity on Trypsin
To a mixture of a 0.2 M HEPES.sodium hydroxide buffer solution (pH 8.0, 100 μl) and distilled water (640 μl), were added a test compound in various concentration or water (10 μl), and a solution of 80 mU/ml trypsin (derived from bovine pancreas) (50 μl) and then the mixture was preincubated for one minute at 30° C. To the solution thus obtained was added 2.5 mM BAPNA (200 μl) and the mixture was incubated at 30° C. The absorbance at 405 nm was measured. Percentage (%) of the absorbance in the presence of a test compound was calculated when the absorbance in the absence thereof was regarded as 100%, and therefrom IC50 value was calculated.
HEPES represents 4-2-hydroxyethyl)-1-piperazineethanesulfonic acid, and
BAPNA represents α-N-benzoyl-DL-arginine-p-nitroanilide hydrochloride.

[2] = molecular target: T2, PLA2 (derived from hog pancreas) (Sus scrofa, UniProt P00592); test: Inhibitory activity on PLA2; assay type: biochemical; conditions: hog pancreas PLA2, 10PY-PC substrate, fluorescence, pH7.5
T2 construct: a solution of 10 mU/ml PLA2 (derived from hog pancreas) (50 μl); from tissue; host or cells: hog pancreas
Method: (1) Inhibitory Activity on PLA2
A reaction solution including 50 mM tris-HCl buffer (pH7.5, 874 μl; containing 100 mM sodium chloride, 1 mM EDTA), 1M calciumchloride (6 μl), 1% bovine serum albumin (10 μl) and 2.5 mM 10PY-PC (10 μl), was prepared. To the solution were added a test compound in various concentration or water (50 μl), and a solution of 10 mU/ml PLA2 (derived from hog pancreas) (50 μl). The appearance of fluorescence was measured (Ex=345 nm, Em=396 nm). Percentage (%) of the strength of fluorescence in the presence of a test compound was calculated when the strength of that in the absence thereof was regarded as 100%, and therefrom IC50 value was calculated.
10PY-PC represents 3′-palmitoyl-2-(1-pyrenedecanoyl)-L-α-phosphatidylcholine, […]

[3] = molecular target: T3, LTB4 receptor (Homo sapiens, UniProt Q15722); test: Binding inhibition against 3H-LTB4 on the human polymorphonuclear leukocyte (PMN); conditions: percentage of inhibition of specific 3H-LTB4 (4nM) binding to human PMN, 0° C. for 20 min; formula (IB) compounds, Table 18
T3 construct: The reaction was started by addition of a thoroughly mixed PMN cell suspension (1.6×10^6 cells); endogenous in cells; host or cells: human polymorphonuclear leukocytes (PMN), whole-cell suspension
Method: Binding Inhibition Against ^3H-LTB4 on the Human Polymorphonuclear Leukocyte (PMN)
0.049 ml Hanks balanced salt solution (HBSS), 0.001 ml test compound and 0.05 ml ^3H-LTB4 (4nM) were added to polypropylene tubes and mixed. The reaction was started by addition of a thoroughly mixed PMN cell suspension (1.6×10^6 cells), followed by incubation at 0° C. for 20 min. The reaction was terminated by the addition of ice-cold HBSS (2.5 ml). PMNs were harvested by vacuum filtration through Whatman GF/C glass fiber filters on a Brandel cell harvester (BRANDEL, M-24R). The filters were then washed 2 times to remove free ^3H-LTB4 with 2.5 ml of the ice-cold PBS (−) solution. The filters were transferred to each vial, and equilibrated after adding 8 ml ACS II cocktail (Amersham). The radioactivity was measured by liquid scintillation counter (Aloka, LSC-5100).
Specific binding of ^3H-LTB4 to the LTB4 receptor was defined as total binding minus nonspecific binding. Nonspecific binding was the amount of ^3H-LTB4 binding in the presence of 1.5 μM LTB4 instead of the test compound. The inhibitory effect of test compound was calculated from the following equation.
The percentage of inhibition (%)=100−(B1/B0×100)
B1: Specific ^3H-LTB4 binding in presence of test compound
B0: Specific ^3H-LTB4 binding in absence of test compound
The compounds of the formula (IB), of the present invention have an antagonistic activity on LTB4. The results which are measured by method as hereinbefore described in Example 1(A), are shown the following Table 18.

T2 sequence (P00592 23-146): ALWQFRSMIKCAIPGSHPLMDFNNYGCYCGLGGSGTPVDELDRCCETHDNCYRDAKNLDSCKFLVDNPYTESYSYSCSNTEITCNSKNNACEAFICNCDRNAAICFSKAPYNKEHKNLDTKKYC
T3 sequence (Q15722 whole entry): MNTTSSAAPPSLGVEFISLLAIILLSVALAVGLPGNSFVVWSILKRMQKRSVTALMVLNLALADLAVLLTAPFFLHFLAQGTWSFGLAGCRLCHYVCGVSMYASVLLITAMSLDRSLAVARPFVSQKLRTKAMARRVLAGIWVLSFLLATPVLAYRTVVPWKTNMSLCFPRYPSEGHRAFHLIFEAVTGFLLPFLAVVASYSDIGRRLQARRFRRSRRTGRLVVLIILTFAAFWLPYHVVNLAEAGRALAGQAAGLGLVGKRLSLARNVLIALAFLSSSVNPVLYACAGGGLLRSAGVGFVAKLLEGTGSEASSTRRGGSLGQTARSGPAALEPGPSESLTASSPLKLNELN

Row | Structure (SMILES) | IC50 [1] | IC50 [2] | inhibition [3]
1 | CCOC(=O)CC[C@H](NC(=O)c1ccc(/C(C)=C/C(=O)Oc2ccc(C(=N)N)cc2)cc1)C(=O)OCC [Example 2(p)] | 0.13 µM | 29 µM | 95.2%
2 | C=CCN(CC(=O)OCC)C(=O)c1ccc(/C(C)=C/C(=O)Oc2ccc(C(=N)N)cc2)cc1 [Example 2(q)] | 0.16 µM | 34 µM | 98%
3 | C=CCN(CC(=O)OCC)C(=O)C(=Cc1ccc(C(=O)Oc2ccc(C(=N)N)cc2)cc1)C(=O)OCC [Example 2(s)] | 0.16 µM | 44 µM | 83%

Second part, the compound after the results:

Row | IC50 [1] | IC50 [2] | inhibition [3] | Structure (SMILES)
4 | 0.14 µM | 12 µM | 85.8% | C=CCC(NC(=O)/C(C)=C/c1ccc(C(=O)Oc2ccc(C(=N)N)cc2)cc1)(C(=O)OCC)C(=O)OCC [Example 2(o)]
5 | 0.16 µM | 46 µM | 80.1% | CCOC(=O)CC[C@H](NC(=O)C(=Cc1ccc(C(=O)Oc2ccc(C(=N)N)cc2)cc1)C(=O)OCC)C(=O)OCC [Example 2(r)]
